Drawing on ChEMBL document CHEMBL1255533, “PKI-179: an orally efficacious dual phosphatidylinositol-3-kinase (PI3K)/mammalian target of rapamycin (mTOR) inhibitor” (Bioorg Med Chem Lett, 2010), this text covers inhibition, Activity and IC50 for 1 compound.

One data set has as its system MDA-MB-361. Kind of data set: Antitumor activity against human MDA-MB-361 cells xenografted in mouse assessed as inhibition tumor growth at 10 mg/kg, po qd. The format is functional, organism-based. More on the design: dose 10 mg/kg. For orientation: In xenograft studies the graft and the host belong to different species.
In data set [1] the test system is Mus musculus. Kind of data set: Toxicity in mouse assessed as weight loss at 10 mg/kg, po qd. The format is organism-based. Further details: dose 10 mg/kg, route oral. As to conditions: in vivo.
A further data set deals with T1, Cytochrome P450 2C8 (Homo sapiens, UniProt P10632).
T1 sequence (P10632 whole entry): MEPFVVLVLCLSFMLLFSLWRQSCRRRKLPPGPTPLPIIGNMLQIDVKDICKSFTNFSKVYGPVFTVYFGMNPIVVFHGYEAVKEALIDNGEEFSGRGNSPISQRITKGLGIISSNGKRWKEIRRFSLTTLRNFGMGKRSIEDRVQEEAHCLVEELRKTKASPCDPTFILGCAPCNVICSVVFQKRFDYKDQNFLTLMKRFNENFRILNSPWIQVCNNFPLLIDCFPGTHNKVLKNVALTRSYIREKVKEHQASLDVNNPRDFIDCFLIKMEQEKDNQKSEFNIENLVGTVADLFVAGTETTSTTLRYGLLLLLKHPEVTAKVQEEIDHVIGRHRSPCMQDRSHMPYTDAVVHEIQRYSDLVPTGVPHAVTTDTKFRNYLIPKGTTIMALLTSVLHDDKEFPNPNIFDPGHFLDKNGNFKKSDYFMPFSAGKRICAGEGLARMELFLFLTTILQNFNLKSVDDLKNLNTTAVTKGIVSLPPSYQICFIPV
Kind of data set: Inhibition of CYP2C8. The format is ADME.

Data set [2] is described as follows: Inhibition of PI3K-alpha […] mutant.
The next data set deals with T2, Cytochrome P450 2A6 (Homo sapiens, UniProt P11509).
T2 sequence (P11509 whole entry): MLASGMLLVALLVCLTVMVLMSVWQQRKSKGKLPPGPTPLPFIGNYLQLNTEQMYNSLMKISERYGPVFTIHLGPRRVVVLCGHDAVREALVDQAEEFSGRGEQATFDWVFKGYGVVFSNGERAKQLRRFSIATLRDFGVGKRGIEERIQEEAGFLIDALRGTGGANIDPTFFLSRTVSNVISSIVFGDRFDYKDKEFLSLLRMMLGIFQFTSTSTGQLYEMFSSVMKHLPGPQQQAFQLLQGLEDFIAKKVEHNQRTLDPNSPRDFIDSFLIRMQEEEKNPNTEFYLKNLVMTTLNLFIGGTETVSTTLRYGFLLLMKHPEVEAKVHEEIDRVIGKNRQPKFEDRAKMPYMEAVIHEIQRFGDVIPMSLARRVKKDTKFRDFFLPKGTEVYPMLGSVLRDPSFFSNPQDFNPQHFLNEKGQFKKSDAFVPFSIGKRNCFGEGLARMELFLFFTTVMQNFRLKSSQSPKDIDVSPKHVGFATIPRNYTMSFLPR
Kind of data set: Inhibition of CYP2A6. The format is ADME.

Another data set has as its target Cytochrome P450 3A4 (Homo sapiens, UniProt P08684). Kind of data set: Inhibition of CYP3A4. The format is ADME.
A further data set addresses T3, Cytochrome P450 1A2 (Homo sapiens, UniProt P05177).
T3 sequence (P05177 whole entry): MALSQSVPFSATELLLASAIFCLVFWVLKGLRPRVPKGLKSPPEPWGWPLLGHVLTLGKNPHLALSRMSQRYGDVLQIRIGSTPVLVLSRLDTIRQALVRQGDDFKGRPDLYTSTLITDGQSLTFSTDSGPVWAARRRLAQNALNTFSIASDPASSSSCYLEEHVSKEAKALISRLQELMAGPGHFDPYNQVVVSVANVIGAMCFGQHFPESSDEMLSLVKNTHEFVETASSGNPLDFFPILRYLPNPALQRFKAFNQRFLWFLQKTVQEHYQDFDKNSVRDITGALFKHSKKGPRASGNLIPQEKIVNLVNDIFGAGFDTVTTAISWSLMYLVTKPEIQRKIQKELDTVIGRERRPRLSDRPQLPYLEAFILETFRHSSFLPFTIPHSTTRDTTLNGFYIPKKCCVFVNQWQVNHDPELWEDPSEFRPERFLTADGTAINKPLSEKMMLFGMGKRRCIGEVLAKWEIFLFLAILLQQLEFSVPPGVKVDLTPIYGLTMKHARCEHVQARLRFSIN
Kind of data set: Inhibition of CYP1A2. The format is ADME.

For another data set, the target named is T4, Cytochrome P450 2B6 (Homo sapiens, UniProt P20813).
T4 sequence (P20813 whole entry): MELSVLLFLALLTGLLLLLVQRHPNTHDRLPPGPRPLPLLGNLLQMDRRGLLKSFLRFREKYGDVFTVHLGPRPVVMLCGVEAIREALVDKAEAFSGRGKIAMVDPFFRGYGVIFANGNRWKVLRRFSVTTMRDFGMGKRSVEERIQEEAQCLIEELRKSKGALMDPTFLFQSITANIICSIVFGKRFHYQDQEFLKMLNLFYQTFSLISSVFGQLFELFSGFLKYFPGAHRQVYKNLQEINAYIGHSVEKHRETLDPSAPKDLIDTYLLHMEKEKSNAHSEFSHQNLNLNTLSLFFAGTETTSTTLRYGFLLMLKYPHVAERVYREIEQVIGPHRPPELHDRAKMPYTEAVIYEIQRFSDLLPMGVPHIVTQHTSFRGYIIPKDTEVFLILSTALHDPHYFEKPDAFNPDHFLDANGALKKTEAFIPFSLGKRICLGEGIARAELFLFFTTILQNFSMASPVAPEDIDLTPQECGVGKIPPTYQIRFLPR
Kind of data set: Inhibition of CYP2B6. The format is ADME.

Data set [3] deals with Mus musculus. Kind of data set: In vivo inhibition of PI3K in mouse bearing human MDA-MB-361 cells assessed as inhibition of AKT phosphorylation at 50 mg/kg, po. The format is functional, organism-based. Further details: dose 50 mg/kg.

SMILES strings stand for the structures. Calls of active or inactive are those of the source. No cut-off for these calls is given here.

Sequence of Cytochrome P450 3A4 (P08684 whole entry): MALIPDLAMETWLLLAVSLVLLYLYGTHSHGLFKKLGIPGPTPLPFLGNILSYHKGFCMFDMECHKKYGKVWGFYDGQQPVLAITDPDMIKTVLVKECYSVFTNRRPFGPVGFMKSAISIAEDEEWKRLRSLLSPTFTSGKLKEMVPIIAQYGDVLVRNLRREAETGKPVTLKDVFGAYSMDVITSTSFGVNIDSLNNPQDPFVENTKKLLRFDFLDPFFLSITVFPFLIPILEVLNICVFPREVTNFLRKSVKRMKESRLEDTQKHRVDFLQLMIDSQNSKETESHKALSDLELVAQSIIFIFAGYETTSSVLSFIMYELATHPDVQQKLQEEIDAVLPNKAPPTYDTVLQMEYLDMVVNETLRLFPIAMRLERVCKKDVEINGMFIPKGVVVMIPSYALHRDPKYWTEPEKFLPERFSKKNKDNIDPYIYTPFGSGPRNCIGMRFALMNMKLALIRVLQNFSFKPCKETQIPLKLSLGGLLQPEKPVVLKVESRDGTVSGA

In the case of `O=C(Nc1ccncc1)Nc1ccc(-c2nc(N3CCOCC3)nc(N3C4CCC3COC4)n2)cc1` [PKI-179], the inhibition result in the data set with MDA-MB-361 and with Mus musculus [3] was “Active” throughout. Further, the Activity result with Mus musculus [1] is listed as “Non-toxic”. The IC50 is 3 µM at Cytochrome P450 2C8; 0.011 µM in data set [2]; over 30 µM on Cytochrome P450 2A6; over 30 µM against Cytochrome P450 3A4; over 30 µM against Cytochrome P450 1A2; over 30 µM against Cytochrome P450 2B6.

The term IC50 denotes the concentration that gives 50% inhibition.
